Test results published in the NIST ThermoML archive (doi:10.1016/j.jct.2009.09.009).
Values joined by “and” are separate entries in the source; they are usually repeats but may differ in a detail not shown here. Equal entries are not always repeated.

What was measured:
[1] = Crystal, Calculated from knudsen effusion weight loss
[2] = molar enthalpy of vaporization or sublimation; conditions: Crystal, Clausius-Clapeyron equation and measured Psat

Nc1cccc2c(N)cccc12 [1,5-diaminonaphthalene]
Conditions	molar enthalpy [kcal/mol]	vapor or sublimation pressure
[1], 367.07 K	–	0.000122 kPa and 0.000123 kPa and 0.000125 kPa
[1], 369.1 K	–	0.00015 kPa and 0.000153 kPa and 0.000149 kPa
[1], 371.16 K	–	0.000193 kPa and 0.00019 kPa and 0.000182 kPa
[1], 373.08 K	–	0.000243 kPa and 0.000229 kPa and 0.000246 kPa
[1], 375.1 K	–	0.000311 kPa and 0.000289 kPa and 0.000286 kPa
[1], 377.16 K	–	0.000365 kPa and 0.000344 kPa and 0.000338 kPa
[1], 379.09 K	–	0.000432 kPa and 0.000427 kPa and 0.000417 kPa
[1], 381.1 K	–	0.000535 kPa and 0.000522 kPa and 0.000502 kPa
[1], 383.16 K	–	0.00064 kPa and 0.000622 kPa and 0.000603 kPa
[1], 385.08 K	–	0.000758 kPa and 0.000781 kPa and 0.000757 kPa
[1], 387.09 K	–	0.000967 kPa and 0.00093 kPa and 0.000909 kPa
[1], 389.16 K	–	0.001163 kPa and 0.001096 kPa and 0.001063 kPa
[2], 378.11 K	28.3	–

Nc1cccc2cccc(N)c12 [1,8-diaminonaphthalene]
Conditions	molar enthalpy [kcal/mol]	vapor or sublimation pressure
[1], 314.1 K	–	4.71e-05 kPa and 4.91e-05 kPa and 4.81e-05 kPa
[1], 316.18 K	–	6.84e-05 kPa and 6.65e-05 kPa and 6.32e-05 kPa
[1], 318.18 K	–	8.3e-05 kPa and 7.89e-05 kPa and 8.02e-05 kPa
[1], 320.09 K	–	0.000102 kPa and 9.96e-05 kPa
[1], 322.13 K	–	0.000135 kPa and 0.000127 kPa and 0.000126 kPa
[1], 324.19 K	–	0.000165 kPa and 0.000155 kPa and 0.000159 kPa
[1], 326.12 K	–	0.000197 kPa and 0.000204 kPa and 0.000181 kPa
[1], 328.19 K	–	0.000261 kPa and 0.000251 kPa and 0.000244 kPa
[1], 330.17 K	–	0.000315 kPa and 0.000298 kPa and 0.000296 kPa
[1], 332.07 K	–	0.000351 kPa and 0.000379 kPa and 0.000364 kPa
[1], 334.12 K	–	0.000485 kPa and 0.000472 kPa and 0.000466 kPa
[1], 336.19 K	–	0.000583 kPa and 0.00056 kPa and 0.000585 kPa
[1], 338.08 K	–	0.000707 kPa and 0.000739 kPa and 0.000734 kPa
[2], 326.09 K	23.3	–
